Measurements published in the supplement of paper PMC13207355.

What was measured:
Details in all cases: exposure time: 72 h
[1] = test system: E31 (patient-derived glioblastoma stem cells of proneural subtype); assay: phenotypic distance (Euclidean, principal components) from DMSO controls (arbitrary units); higher = stronger morphological change
[2] = test system: E28 (patient-derived glioblastoma stem cells of classical subtype); assay: as above
[3] = test system: E57 (patient-derived glioblastoma stem cells of mesenchymal subtype); assay: as above
[4] = test system: FT3469 (normal neural stem cell line); assay: as above
[5] = test system: E21 (patient-derived glioblastoma stem cells of mesenchymal subtype); assay: as above
[6] = test system: E13 (patient-derived glioblastoma stem cells of classical subtype); assay: as above
[7] = test system: E34 (patient-derived glioblastoma stem cells of proneural subtype); assay: as above
[8] = test system: E31; assay: surviving fraction (nuclei count normalised to DMSO); higher = more cells surviving (less toxic)
[9] = test system: E28; assay: as above
[10] = test system: E57; assay: as above
[11] = test system: FT3469; assay: as above
[12] = test system: E21; assay: as above
[13] = test system: E13; assay: as above
[14] = test system: E34; assay: as above
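Throughout, for phenotypic distance (Euclidean, principal components) from DMSO controls: cell Painting imaging in 384-well plates, CellProfiler features reduced to at least 20 principal components, Euclidean distance versus same-plate DMSO vehicle wells (0.1% v/v), median over six images per well.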
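Throughout, for surviving fraction (nuclei count normalised to DMSO): nuclei counted by high-content imaging of Hoechst-stained cells in laminin-coated 384-well plates, relative to 0.1% DMSO vehicle wells, with staurosporine as cell-death control.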

COc1cc2ncnc(Nc3cccc(Br)c3)c2cc1OC
Details | phenotypic distance | surviving fraction
[1], 4.1 nM | 0.794 | –
[1], 12.3 nM | 0.613 | –
[1], 37 nM | 0.892 | –
[1], 111.1 nM | 0.732 | –
[1], 333.3 nM | 1.01 | –
[1], 1000 nM | 0.889 | –
[1], 3000 nM | 1.3 | –
[2], 4.1 nM | 0.79 | –
[2], 12.3 nM | 0.832 | –
[2], 37 nM | 0.627 | –
[2], 111.1 nM | 1.04 | –
[2], 333.3 nM | 1.13 | –
[2], 1000 nM | 1.23 | –
[2], 3000 nM | 0.966 | –
[3], 4.1 nM | 0.927 | –
[3], 12.3 nM | 1.19 | –
[3], 37 nM | 1.4 | –
[3], 111.1 nM | 1.37 | –
[3], 333.3 nM | 1.71 | –
[3], 1000 nM | 1.59 | –
[3], 3000 nM | 1.98 | –
[4], 4.1 nM | 0.686 | –
[4], 12.3 nM | 0.611 | –
[4], 37 nM | 0.986 | –
[4], 111.1 nM | 0.512 | –
[4], 333.3 nM | 0.982 | –
[4], 1000 nM | 0.82 | –
[4], 3000 nM | 1.29 | –
[5], 4.1 nM | 0.609 | –
[5], 12.3 nM | 1.01 | –
[5], 37 nM | 0.8 | –
[5], 111.1 nM | 3.3 | –
[5], 333.3 nM | 0.937 | –
[5], 1000 nM | 1.35 | –
[5], 3000 nM | 5.43 | –
[6], 4.1 nM | 3.14 | –
[6], 12.3 nM | 0.603 | –
[6], 37 nM | 1.05 | –
[6], 111.1 nM | 4.7 | –
[6], 333.3 nM | 3.33 | –
[6], 1000 nM | 1.72 | –
[6], 3000 nM | 1.27 | –
[7], 4.1 nM | 0.973 | –
[7], 12.3 nM | 0.835 | –
[7], 37 nM | 1.15 | –
[7], 111.1 nM | 1.03 | –
[7], 333.3 nM | 1.14 | –
[7], 1000 nM | 1.16 | –
[7], 3000 nM | 2.27 | –
[8], 4.1 nM | – | 1.05
[8], 12.3 nM | – | 0.755
[8], 37 nM | – | 0.826
[8], 111.1 nM | – | 0.837
[8], 333.3 nM | – | 0.877
[8], 1000 nM | – | 0.767
[8], 3000 nM | – | 0.97
[9], 4.1 nM | – | 1.07
[9], 12.3 nM | – | 0.99
[9], 37 nM | – | 0.899
[9], 111.1 nM | – | 0.898
[9], 333.3 nM | – | 0.963
[9], 1000 nM | – | 0.944
[9], 3000 nM | – | 0.918
[10], 4.1 nM | – | 0.926
[10], 12.3 nM | – | 0.974
[10], 37 nM | – | 0.909
[10], 111.1 nM | – | 0.83
[10], 333.3 nM | – | 0.818
[10], 1000 nM | – | 0.793
[10], 3000 nM | – | 0.656
[11], 4.1 nM | – | 0.879
[11], 12.3 nM | – | 0.996
[11], 37 nM | – | 0.905
[11], 111.1 nM | – | 0.858
[11], 333.3 nM | – | 1.05
[11], 1000 nM | – | 1.04
[11], 3000 nM | – | 1.06
[12], 4.1 nM | – | 1.02
[12], 12.3 nM | – | 0.921
[12], 37 nM | – | 0.943
[12], 111.1 nM | – | 0.867
[12], 333.3 nM | – | 1.06
[12], 1000 nM | – | 0.88
[12], 3000 nM | – | 0.346
[13], 4.1 nM | – | 0.967
[13], 12.3 nM | – | 1.02
[13], 37 nM | – | 0.972
[13], 111.1 nM | – | 0.952
[13], 333.3 nM | – | 1.14
[13], 1000 nM | – | 1.04
[13], 3000 nM | – | 0.903
[14], 4.1 nM | – | 1.05
[14], 12.3 nM | – | 0.884
[14], 37 nM | – | 1.07
[14], 111.1 nM | – | 1.12
[14], 333.3 nM | – | 0.965
[14], 1000 nM | – | 1.07
[14], 3000 nM | – | 0.81

O=C(O)c1ccc(-c2c[nH]c3ncc(-c4ccccc4)cc23)cc1C1CCCC1
Details | phenotypic distance | surviving fraction
[1], 4.11523 nM | 0.443 | –
[1], 12.34567901 nM | 0.638 | –
[1], 37.037 nM | 0.948 | –
[1], 111.1111111 nM | 0.662 | –
[1], 333.333 nM | 1.08 | –
[1], 1000 nM | 1.15 | –
[1], 3000 nM | 1.91 | –
[2], 4.11523 nM | 0.635 | –
[2], 12.34567901 nM | 0.785 | –
[2], 37.037 nM | 0.418 | –
[2], 111.1111111 nM | 0.61 | –
[2], 333.333 nM | 0.687 | –
[2], 1000 nM | 1.26 | –
[2], 3000 nM | 2.4 | –
[3], 4.11523 nM | 0.657 | –
[3], 12.34567901 nM | 0.719 | –
[3], 37.037 nM | 0.687 | –
[3], 111.1111111 nM | 1.04 | –
[3], 333.333 nM | 0.598 | –
[3], 1000 nM | 1.78 | –
[3], 3000 nM | 4.38 | –
[4], 4.11523 nM | 0.839 | –
[4], 12.34567901 nM | 1.18 | –
[4], 37.037 nM | 0.627 | –
[4], 111.1111111 nM | 1.11 | –
[4], 333.333 nM | 0.969 | –
[4], 1000 nM | 1.71 | –
[4], 3000 nM | 2.49 | –
[5], 4.11523 nM | 0.656 | –
[5], 12.34567901 nM | 0.914 | –
[5], 37.037 nM | 0.757 | –
[5], 111.1111111 nM | 0.832 | –
[5], 333.333 nM | 0.828 | –
[5], 1000 nM | 1.75 | –
[5], 3000 nM | 4.49 | –
[6], 4.11523 nM | 3.86 | –
[6], 12.34567901 nM | 2.38 | –
[6], 37.037 nM | 0.747 | –
[6], 111.1111111 nM | 0.749 | –
[6], 333.333 nM | 1 | –
[6], 1000 nM | 2.77 | –
[6], 3000 nM | 5.39 | –
[7], 4.11523 nM | 1.13 | –
[7], 12.34567901 nM | 0.775 | –
[7], 37.037 nM | 0.829 | –
[7], 111.1111111 nM | 1.03 | –
[7], 333.333 nM | 1.12 | –
[7], 1000 nM | 2.9 | –
[7], 3000 nM | 4.8 | –
[8], 4.11523 nM | – | 1.04
[8], 12.34567901 nM | – | 1.01
[8], 37.037 nM | – | 0.885
[8], 111.1111111 nM | – | 1.14
[8], 333.333 nM | – | 0.798
[8], 1000 nM | – | 1.04
[8], 3000 nM | – | 0.688
[9], 4.11523 nM | – | 0.956
[9], 12.34567901 nM | – | 0.911
[9], 37.037 nM | – | 0.873
[9], 111.1111111 nM | – | 1.01
[9], 333.333 nM | – | 0.807
[9], 1000 nM | – | 0.755
[9], 3000 nM | – | 0.51
[10], 4.11523 nM | – | 0.932
[10], 12.34567901 nM | – | 0.905
[10], 37.037 nM | – | 0.923
[10], 111.1111111 nM | – | 0.916
[10], 333.333 nM | – | 0.835
[10], 1000 nM | – | 0.6
[10], 3000 nM | – | 0.35
[11], 4.11523 nM | – | 0.822
[11], 12.34567901 nM | – | 0.943
[11], 37.037 nM | – | 0.972
[11], 111.1111111 nM | – | 0.987
[11], 333.333 nM | – | 0.813
[11], 1000 nM | – | 0.996
[11], 3000 nM | – | 0.766
[12], 4.11523 nM | – | 0.933
[12], 12.34567901 nM | – | 0.832
[12], 37.037 nM | – | 0.918
[12], 111.1111111 nM | – | 0.783
[12], 333.333 nM | – | 0.803
[12], 1000 nM | – | 0.681
[12], 3000 nM | – | 0.52
[13], 4.11523 nM | – | 0.996
[13], 12.34567901 nM | – | 0.826
[13], 37.037 nM | – | 0.899
[13], 111.1111111 nM | – | 0.825
[13], 333.333 nM | – | 0.72
[13], 1000 nM | – | 0.588
[13], 3000 nM | – | 0.413
[14], 4.11523 nM | – | 0.913
[14], 12.34567901 nM | – | 1.06
[14], 37.037 nM | – | 0.86
[14], 111.1111111 nM | – | 0.909
[14], 333.333 nM | – | 0.805
[14], 1000 nM | – | 0.714
[14], 3000 nM | – | 0.527
